Results: PubChem BioAssay (NCI)
Several values for one entry are separate records, joined by “and”; a condition that tells them apart may be missing. Identical values can stand only once.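 Each compound was tested at five concentrations against cells in 96-well plates for 48 hours. GI50 is the concentration that inhibits growth by half. The concentration for full growth arrest is given as TGI.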

Legend:
Assay in all cases: growth of human tumour cells (NCI), 48 h
A498 renal = tested on: A498 renal
A549 NSCLC = tested on: A549 NSCLC
COLO 205 colon = tested on: COLO 205 colon
HCT-116 colon = tested on: HCT-116 colon
KM12 colon = tested on: KM12 colon
SF-295 CNS = tested on: SF-295 CNS
SK-MEL-2 melanoma = tested on: SK-MEL-2 melanoma
SW-620 colon = tested on: SW-620 colon
TK-10 renal = tested on: TK-10 renal
SN12C renal = tested on: SN12C renal

Structure (SMILES) | TGI (A498 renal) | TGI (A549 NSCLC) [µM] | GI50 (COLO 205 colon) [µM] | TGI (COLO 205 colon) [µM] | TGI (HCT-116 colon) | GI50 (KM12 colon) | TGI (KM12 colon) [µM] | TGI (SF-295 CNS) [µM] | GI50 (SK-MEL-2 melanoma) | GI50 (SW-620 colon) [µM] | TGI (SW-620 colon) [µM] | GI50 (TK-10 renal) | TGI (TK-10 renal) | GI50 (A549 NSCLC) [µM] | GI50 (HCT-116 colon) | GI50 (SF-295 CNS) [µM] | TGI (SK-MEL-2 melanoma) | GI50 (SN12C renal) | TGI (SN12C renal) | GI50 (A498 renal) [µM]
Nc1ccn(C2OC(CO[P+](=O)OC3C(CO[P+](=O)OC4C(CO[P+](=O)OC5C(CO[P+](=O)OC6C(CO[P+](=O)OC7C(CO[P+](=O)OC8C(CO[P+](=O)OC9C(CO[P+](=O)OC%10C(CO[P+](=O)OC%11C(CO)OC(n%12ccc(N)nc%12=O)C%11(F)F)OC(n%11ccc(N)nc%11=O)C%10(F)F)OC(n%10ccc(N)nc%10=O)C9(F)F)OC(n9ccc(N)nc9=O)C8(F)F)OC(n8ccc(N)nc8=O)C7(F)F)OC(n7ccc(N)nc7=O)C6(F)F)OC(n6ccc(N)nc6=O)C5(F)F)OC(n5ccc(N)nc5=O)C4(F)F)OC(n4ccc(N)nc4=O)C3(F)F)C(O)C2(F)F)c(=O)n1 (stereo not drawn) | > 100 µM | > 100 | 0.369 | > 100 | > 100 µM | 2.03 µM | > 100 | > 100 | 35 µM | 0.168 | > 100 | > 100 µM | > 100 µM | – | – | – | – | – | – | –
C[C@H]1O[C@@H](O[C@H]2[C@@H](O)C[C@H](O[C@H]3[C@@H](O)C[C@H](O[C@H]4CC[C@]5(C)C6C[C@@H](O)[C@]7(C)[C@@H](C8=CC(=O)OC8)CC[C@]7(O)C6CC[C@@H]5C4)O[C@@H]3C)O[C@@H]2C)C[C@H](O)[C@@H]1O (stereo partly drawn) | – | 0.0581 | 0.146 | 0.374 | 0.0972 µM | 0.144 µM | 0.544 | 0.233 | 0.121 µM | 0.049 | 0.174 | 0.0266 µM | 0.213 µM | 0.0163 | 0.0207 µM | 0.0595 | 0.328 µM | 0.0266 µM | 0.457 µM | –
CCCCN(CCCC)c1cc(C(=O)CCCCCN)c2ccccc2n1 | 19.2 µM | 3.38 | – | – | 3.16 µM | – | – | 3.85 | 2.56 µM | – | – | 1.94 µM | 3.5 µM | 1.78 | 1.78 µM | 1.86 | 4.45 µM | 1.63 µM | 3.07 µM | 2.85
COc1cc(-c2nn(C)nc2-c2cc3ccccc3s2)cc(OC)c1OC | 7.63 µM | > 100 | 0.082 | 0.515 | > 100 µM | 0.0549 µM | > 100 | 15.3 | 0.0597 µM | 0.0633 | > 100 | 0.578 µM | > 100 µM | 0.169 | 0.0738 µM | 0.036 | 21.2 µM | – | – | 0.0413
CCOC(=O)NC(=O)c1cn(CCCCCCCCCCC(=O)N2CCN(CCn3cc(C(=O)NC(=O)OCC)c(=O)[nH]c3=O)CC2)c(=O)[nH]c1=O | > 100 µM | > 100 | – | > 100 | > 100 µM | – | – | > 100 | – | – | > 100 | – | > 100 µM | – | – | – | – | – | > 100 µM | –
Cc1cc(N2CCOCC2)nc(N(CCNc2ccnc3cc(Cl)ccc23)Cc2ccco2)n1 | 12.6 µM | 39.1 | 2.34 | > 100 | – | 4.81 µM | 53.5 | 3.64 | 2.14 µM | 3.39 | 45.2 | 2.71 µM | 9.62 µM | 6.2 | – | 1.68 | 5.18 µM | 6.88 µM | 26.7 µM | 2.47
Cn1c(O)c(C=N)c(=O)n(C)c1=O | – | > 100 | – | – | – | – | > 100 | > 100 | – | – | > 100 | – | > 100 µM | – | – | – | > 100 µM | – | > 100 µM | –
O=[N+]([O-])c1ccc(Oc2cccnc2)c([N+](=O)[O-])c1 | 43.1 µM | – | 2.35 | 4.39 | 6.22 µM | 2.69 µM | 6.68 | > 100 | 3.97 µM | 3.27 | 12.5 | – | – | – | 2.43 µM | 18.6 | 14.8 µM | 4.3 µM | 23.2 µM | 18.7
O=c1oc2c(Br)c(O)c(Br)cc2c2ccccc12 | 58.5 µM | 87.1 | – | > 100 | 92.6 µM | – | – | > 100 | – | – | > 100 | – | > 100 µM | – | – | – | 62.7 µM | – | 84.4 µM | –
COC(=O)C(=C\Sc1ccccc1)/C=C/C(=O)OC(C)(C)C | – | 42 | – | 14 | 21.9 µM | – | 24.3 | 34.3 | – | – | 12.4 | – | 30.8 µM | – | – | – | 24.8 µM | – | > 29 µM | –
O=C1C(CN(Cc2ccccc2)Cc2ccccc2)CCCC1CN(Cc1ccccc1)Cc1ccccc1 (stereo not drawn) | 77.2 µM and > 100 µM | > 100 | – | – | 21.5 µM and > 100 µM | 40.2 µM and > 100 µM | > 100 | > 100 | 19.6 µM and > 69.9 µM | > 100 | > 100 | 14.7 µM and > 100 µM | 28.3 µM and > 100 µM | – | 14.6 µM and 70.3 µM | – | 36 µM and > 100 µM | 13.1 µM and > 79 µM | 25.8 µM and > 100 µM | –
Cc1cc(=O)[nH]c(CNC(=O)c2cccc3ccccc23)n1 | > 100 µM | > 100 | – | > 100 | > 100 µM | – | – | > 100 | – | – | > 100 | – | > 100 µM | – | – | – | – | – | > 100 µM | –
COC(=O)C1C(=O)O[C@@H](c2ccc(OC)cc2)C1C(=O)OC (stereo partly drawn) | > 100 µM | > 100 | – | > 100 | > 100 µM | – | > 100 | > 100 | – | – | > 100 | – | > 100 µM | – | – | – | – | – | > 100 µM | –
Cc1cc(NC(=O)NC(=O)c2ccccc2[N+](=O)[O-])ccc1Oc1ncc(Cl)cn1 | 19.6 µM | > 100 | – | > 20 | 18 µM | – | 13 | 29.3 | – | – | > 100 | – | > 65.2 µM | – | – | – | – | – | > 81.6 µM | –
COC(=O)C1=C2C3=C(C(=O)c4ccccc4C3=O)N(Cc3ccccc3)C2(OC(C)=O)C=CC1=O (stereo not drawn) | – | > 100 | 26.8 | > 100 | 24.8 µM | – | – | 29.3 | 42.5 µM | 17.2 | 94 | – | 33.8 µM | 27.6 | 6.25 µM | 6.3 | > 100 µM | 6.78 µM | 30.2 µM | –
O=C(Nc1cccc(-n2cc(-c3ccncc3)c(-c3cc(O)cc(Cl)c3)n2)c1)Nc1ccc(Cl)c(Cl)c1 | 9.06 µM | 7.54 | 1.96 | 3.78 | 4.1 µM | 1.5 µM | 3.69 | 4.6 | 1.8 µM | 3.22 | 9.97 | – | – | 1.96 | 1.74 µM | 1.7 | 4.04 µM | 2.78 µM | 18.1 µM | 2.09
CCC1(O)C(=O)OCc2c1cc1n(c2=O)Cc2c-1nc1ccccc1c2OC (stereo not drawn) | 0.319 µM | 1.85 | – | 13.9 | 1.21 µM | – | 10.8 | 11.3 | – | – | 29 | – | > 100 µM | – | – | – | 14.7 µM | – | – | –
